Assay results published in US8829007B2 (priority 2009, dated 2014).
Where two headings read alike, the source gives them in different places.

Key:
[1] = test system: influenza A virus (A/PR/8/34); experiment: microbe, parasite or virus in culture; type: cell-based
[2] = test system: A/PR/8/34 influenza virus; experiment: microbe, parasite or virus in culture; type: cell-based
[3] = Influenza A virus, PR/8, MDCK, MDCK cells infected with A/PR/8/34, cell protection (CPE), read-out: IC50 (mean all)
[4] = Influenza A virus, PR/8, MDCK, MDCK cells infected with A/PR/8/34, bDNA viral RNA, read-out: EC50 (mean all)
[5] = Influenza A virus, PR/8, MDCK, mean all, A/PR/8/34 infected MDCK cells, CPE assay, read-out: IC50
[6] = Influenza A virus, PR/8, MDCK, mean all, A/PR/8/34 influenza virus in MDCK cells, bDNA assay, read-out: EC50

Compound	IC50 [1, 3] [µM]	EC50 [2, 4] [µM]	IC50 [1, 5] [µM]	EC50 [2, 6] [µM]	also measured
CCOC(=O)N1CCCC[C@H]1CNc1nc(-c2c[nH]c3ncc(Cl)cc23)ncc1F [Compound 171, (S)-ethyl 2-((2-(5-chloro-1H-pyrrolo[2,3-b]pyridin-3-yl)-5-fluoropyrimidin-4-ylamino)methyl)piperidine-1-carboxylate]	> 20	5 to 10	–	–	–
CC(=O)N1CCCC[C@@H]1CNc1nc(-c2c[nH]c3ncc(Cl)cc23)ncc1F [Compound 179, (R)-1-(2-((2-(5-chloro-1H-pyrrolo[2,3-b]pyridin-3-yl)-5-fluoropyrimidin-4-ylamino)methyl)piperidin-1-yl)ethanone]	< 5	< 5	–	–	–
O=C(OCCF)N1CCCC[C@@H]1CNc1nc(-c2c[nH]c3ncc(Cl)cc23)ncc1F [Compound 180, (R)-2-fluoroethyl 2-((2-(5-chloro-1H-pyrrolo[2,3-b]pyridin-3-yl)-5-fluoropyrimidin-4-ylamino)methyl)piperidine-1-carboxylate]	< 5	< 5	–	–	–
O=C(c1nccs1)N1CCCC(CNc2nc(-c3c[nH]c4ncc(Cl)cc34)ncc2F)C1 (centres unmarked) [Compound 186]	< 5	< 5	–	–	–
CCCNC(=O)N1CCCC(Nc2nc(-c3c[nH]c4ncc(Cl)cc34)ncc2F)C1 (centres unmarked) [Compound 196]	–	–	–	–	IC50 ([1]; read-out: IC50 (mean all)): < 5 µM; EC50 ([2]; read-out: EC50 (mean all)): < 5 µM
CCC(=O)N1CCCC[C@@H]1CNc1nc(-c2c[nH]c3ncc(Cl)cc23)ncc1F [Compound 208, (R)-1-(2-((2-(5-chloro-1H-pyrrolo[2,3-b]pyridin-3-yl)-5-fluoropyrimidin-4-ylamino)methyl)piperidin-1-yl)propan-1-one]	< 5	< 5	–	–	–
O=C(c1ccc(F)cc1)N1CCCC[C@@H]1CNc1nc(-c2c[nH]c3ncc(Cl)cc23)ncc1F [Compound 209, (R)-(2-((2-(5-chloro-1H-pyrrolo[2,3-b]pyridin-3-yl)-5-fluoropyrimidin-4-ylamino)methyl)piperidin-1-yl)(4-fluorophenyl)methanone]	< 5	< 5	–	–	–
O=C(c1cccc(C(F)(F)F)c1)N1CCCC[C@@H]1CNc1nc(-c2c[nH]c3ncc(Cl)cc23)ncc1F [Compound 210, (R)-(2-((2-(5-chloro-1H-pyrrolo[2,3-b]pyridin-3-yl)-5-fluoropyrimidin-4-ylamino)methyl)piperidin-1-yl)(3-(trifluoromethyl)phenyl)methanone]	> 20	5 to 10	–	–	–
C=CCCC(=O)N1CCCC[C@@H]1CNc1nc(-c2c[nH]c3ncc(Cl)cc23)ncc1F [Compound 279, (R)-1-(2-((2-(5-chloro-1H-pyrrolo[2,3-b]pyridin-3-yl)-5-fluoropyrimidin-4-ylamino)methyl)piperidin-1-yl)pent-4-en-1-one]	< 5	< 5	–	–	–
O=C(CC(F)(F)F)N1CCCC[C@@H]1CNc1nc(-c2c[nH]c3ncc(Cl)cc23)ncc1F [Compound 280, (R)-1-(2-((2-(5-chloro-1H-pyrrolo[2,3-b]pyridin-3-yl)-5-fluoropyrimidin-4-ylamino)methyl)piperidin-1-yl)-3,3,3-trifluoropropan-1-one]	< 5	< 5	–	–	–
C#CCCCC(=O)N1CCCC[C@@H]1CNc1nc(-c2c[nH]c3ncc(Cl)cc23)ncc1F [Compound 281, (R)-1-(2-((2-(5-chloro-1H-pyrrolo[2,3-b]pyridin-3-yl)-5-fluoropyrimidin-4-ylamino)methyl)piperidin-1-yl)hex-5-yn-1-one]	< 5	< 5	–	–	–
O=C(CCc1ccccc1)N1CCCC[C@@H]1CNc1nc(-c2c[nH]c3ncc(Cl)cc23)ncc1F [Compound 293, (R)-1-(2-((2-(5-chloro-1H-pyrrolo[2,3-b]pyridin-3-yl)-5-fluoropyrimidin-4-ylamino)methyl)piperidin-1-yl)-3-phenylpropan-1-one]	< 5	< 5	–	–	–
CCCC(=O)N1CCCC[C@@H]1CNc1nc(-c2c[nH]c3ncc(Cl)cc23)ncc1F [Compound 295, (R)-1-(2-((2-(5-chloro-1H-pyrrolo[2,3-b]pyridin-3-yl)-5-fluoropyrimidin-4-ylamino)methyl)piperidin-1-yl)butan-1-one]	< 5	< 5	–	–	–
CCCS(=O)(=O)N1CCC[C@H](Nc2nc(-c3c[nH]c4ncc(Cl)cc34)ncc2F)C1 [Compound 306, (S)-2-(5-chloro-1H-pyrrolo[2,3-b]pyridin-3-yl)-5-fluoro-N-(1-(propylsulfonyl)-piperidin-3-yl)pyrimidin-4-amine]	–	–	< 5	< 5	–
CCCS(=O)(=O)N1CCC[C@@H](Nc2nc(-c3c[nH]c4ncc(Cl)cc34)ncc2F)C1 [Compound 316, (R)-2-(5-chloro-1H-pyrrolo[2,3-b]pyridin-3-yl)-5-fluoro-N-(1-(propylsulfonyl)piperidin-3-yl)pyrimidin-4-amine]	–	–	5 to 20	< 5	–
O=C(C1CC1)N1CCC[C@@H](Nc2nc(-c3c[nH]c4ncc(Cl)cc34)ncc2F)C1 [Compound 317]	–	–	5 to 20	< 5	–
CC(C)CC(=O)N1CCC[C@@H](Nc2nc(-c3c[nH]c4ncc(Cl)cc34)ncc2F)C1 [Compound 318]	–	–	> 20	< 5	–

Compound	IC50 [1, 3] [µM]	EC50 [2, 4] [µM]	IC50 [1, 5] [µM]	EC50 [2, 6] [µM]	also measured
O=C(C1CCC1)N1CCC[C@@H](Nc2nc(-c3c[nH]c4ncc(Cl)cc34)ncc2F)C1 [Compound 319]	–	–	> 20	< 5	–
COCCC(=O)N1CCC[C@@H](Nc2nc(-c3c[nH]c4ncc(Cl)cc34)ncc2F)C1 [Compound 320]	–	–	5 to 20	5 to 10	–
CCS(=O)(=O)N1CCC[C@@H](Nc2nc(-c3c[nH]c4ncc(Cl)cc34)ncc2F)C1 [Compound 321, (R)-2-(5-chloro-1H-pyrrolo[2,3-b]pyridin-3-yl)-N-(1-(ethylsulfonyl)piperidin-3-yl)-5-fluoropyrimidin-4-amine]	–	–	5 to 20	< 5	–
CC(C)S(=O)(=O)N1CCC[C@@H](Nc2nc(-c3c[nH]c4ncc(Cl)cc34)ncc2F)C1 [Compound 322, (R)-2-(5-chloro-1H-pyrrolo[2,3-b]pyridin-3-yl)-5-fluoro-N-(1-(isopropylsulfonyl)-piperidin-3-yl)pyrimidin-4-amine]	–	–	> 20	< 5	–
CCCCNC(=O)N1CCC[C@H](Nc2nc(-c3c[nH]c4ncc(Cl)cc34)ncc2F)C1 [Compound 323]	–	–	> 20	< 5	–
CCCNC(=O)N1CCC[C@H](Nc2nc(-c3c[nH]c4ncc(Cl)cc34)ncc2F)C1 [Compound 324]	–	–	5 to 20	< 5	–
O=C(C1CC1)N1CCC[C@H](CNc2nc(-c3c[nH]c4ncc(Cl)cc34)ncc2F)C1 [Compound 325, (R)-(3-((2-(5-chloro-1H-pyrrolo[2,3-b]pyridin-3-yl)-5-fluoropyrimidin-4-ylamino)methyl)piperidin-1-yl)(cyclopropyl)methanone]	–	–	5 to 20	< 5	–
CCCCC(=O)N1CCCC[C@@H]1CNc1nc(-c2c[nH]c3ncc(Cl)cc23)ncc1F [Compound 326, (R)-1-(2-((2-(5-chloro-1H-pyrrolo[2,3-b]pyridin-3-yl)-5-fluoropyrimidin-4-ylamino)methyl)piperidin-1-yl)pentan-1-one]	–	–	5 to 20	< 5	–
COCCC(=O)N1CCC[C@H](CNc2nc(-c3c[nH]c4ncc(Cl)cc34)ncc2F)C1 [Compound 327, (R)-1-(3-((2-(5-chloro-1H-pyrrolo[2,3-b]pyridin-3-yl)-5-fluoropyrimidin-4-ylamino)methyl)piperidin-1-yl)-3-methoxypropan-1-one]	–	–	< 5	< 5	–
O=S(=O)(CCCCl)N1CCCC[C@@H]1CNc1nc(-c2c[nH]c3ncc(Cl)cc23)ncc1F [Compound 330, (R)-2-(5-chloro-1H-pyrrolo[2,3-b]pyridin-3-yl)-N-((1-(3-chloropropylsulfonyl)piperidin-2-yl)methyl)-5-fluoropyrimidin-4-amine]	–	–	< 5	< 5	–
CC(C)CC(=O)N1CCC[C@H](Nc2nc(-c3c[nH]c4ncc(Cl)cc34)ncc2F)C1 [Compound 332]	–	–	< 5	< 5	–
CCNC(=O)N1CCCC[C@@H]1CNc1nc(-c2c[nH]c3ncccc23)ncc1F [Compound 373, (R)—N-ethyl-2-((5-fluoro-2-(1H-pyrrolo[2,3-b]pyridin-3-yl)pyrimidin-4-ylamino)-methyl)piperidine-1-carboxamide]	–	–	5 to 20	> 10	–
CCCNC(=O)N1CCCC[C@@H]1CNc1nc(-c2c[nH]c3ncccc23)ncc1F [Compound 375, (R)-2-((5-fluoro-2-(1H-pyrrolo[2,3-b]pyridin-3-yl)pyrimidin-4-ylamino)methyl)-N-propylpiperidine-1-carboxamide]	–	–	5 to 20	5 to 10	–
CN1CCC(Nc2nc(-c3c[nH]c4ncc(Cl)cc34)ncc2F)C1=O (centres unmarked) [Compound 379]	–	–	5 to 20	< 5	–
CS(=O)(=O)N1CCCC[C@@H]1CNc1nc(-c2c[nH]c3ncc(Cl)cc23)ncc1F [Compound 381, (R)-2-(5-chloro-1H-pyrrolo[2,3-b]pyridin-3-yl)-5-fluoro-N-((1-(methylsulfonyl)-piperidin-2-yl)methyl)pyrimidin-4-amine]	–	–	< 5	< 5	–
CCS(=O)(=O)N1CCCC[C@@H]1CNc1nc(-c2c[nH]c3ncc(Cl)cc23)ncc1F [Compound 382, (R)-2-(5-chloro-1H-pyrrolo[2,3-b]pyridin-3-yl)-5-fluoro-N-((1-(ethylsulfonyl)-piperidin-2-yl)methyl)pyrimidin-4-amine]	–	–	< 5	< 5	–
O=S(=O)(CC(F)(F)F)N1CCCC[C@@H]1CNc1nc(-c2c[nH]c3ncc(Cl)cc23)ncc1F [Compound 383, (R)-2-(5-chloro-1H-pyrrolo[2,3-b]pyridin-3-yl)-5-fluoro-N-((1-(2,2,2-trifluoro-ethylsulfonyl)-piperidin-2-yl)methyl)pyrimidin-4-amine]	–	–	< 5	< 5	–
